Source: ChEMBL document CHEMBL5247617, “4-Arylthiosemicarbazide derivatives - Pharmacokinetics, toxicity and anti-Toxoplasma gondii activity in vivo” (Eur J Med Chem, 2022)
Active and inactive are the calls of the source. The rule behind the calls is not given here.

Columns and labels:
[1] = Toxicity in BALB/c mouse assessed as increase in serum AST level at 20 mg/kg, po administered for 5 days and measured on day 1 and day 14 by ELISA method; assay type: organism-based; settings: in vivo, 120 h, time 5 day
Toxoplasma gondii [2] = assay: Antiparasitic activity against Toxoplasma gondii RH infected in BALB/c mouse assessed as reduction in number of bradyzoite gene copies in muscles at 20 mg/kg, po administered every 24 hrs for 5 days starting from 24 hrs post infection by real-time qPCR analysis; assay type: functional; settings: time 5 day
[3] = Toxicity in BALB/c mouse assessed as changes in liver weight at 20 mg/kg, po administered for 5 days and measured after 14 days; assay type: organism-based; settings: in vivo, 120 h, time 5 day
[4] = Toxicity in BALB/c mouse assessed as increase in serum ALT level at 20 mg/kg, po administered for 5 days and measured on day 1 and day 14 by ELISA method; assay type: organism-based; settings: in vivo, 120 h, time 5 day
Toxoplasma gondii [5] = assay: Antiparasitic activity against Toxoplasma gondii DX infected in C3H/HeOuJ mouse assessed as prolongation of survival at 20 mg/kg, po administered every 24 hrs for 5 days starting from 24 hrs post infection by Kaplan-Meier method; assay type: functional, organism-based; settings: time 5.0 day
Toxoplasma gondii [6] = assay: Antiparasitic activity against Toxoplasma gondii RH infected in BALB/c mouse assessed as prolongation of animal survival at 20 mg/kg, po administered every 24 hrs for 5 days starting from 24 hrs post infection by Kaplan-Meier method; assay type: functional, organism-based; settings: time 5.0 day
[7] = Toxicity in BALB/c mouse assessed as hydropic degeneration at 20 mg/kg, po administered for 5 days and measured after 1 day by hematoxylin-eosin staining based microscopic analysis; assay type: organism-based; settings: in vivo, 120 h, time 5 day
Toxoplasma gondii [8] = assay: Antiparasitic activity against Toxoplasma gondii RH infected in BALB/c mouse assessed as reduction of bradyzoite gene copies in brain at 20 mg/kg, po administered every 24 hrs for 5 days starting from 24 hrs post infection by real-time qPCR analysis; assay type: functional, organism-based; settings: time 5.0 day
[9] = Toxicity in BALB/c mouse assessed as increase in liver weight at 20 mg/kg, po administered for 5 days and measured after 1 day; assay type: organism-based; settings: in vivo, 120 h, time 5 day
Toxoplasma gondii [10] = assay: Antiparasitic activity against Toxoplasma gondii RH infected in BALB/c mouse assessed as decrease in IFNgamma level in serum at 20 mg/kg, po administered every 24 hrs for 5 days starting from 24 hrs post infection by ELISA method; assay type: functional, organism-based; settings: time 5.0 day
[11] = Toxicity in BALB/c mouse assessed as increase in creatinine level at 20 mg/kg, po administered for 5 days and measured after 1 day by colorimetric assay; assay type: organism-based; settings: in vivo, 120 h, time 5 day
[12] = Toxicity in BALB/c mouse assessed as disseminated necrosis of hepatocytes at 20 mg/kg, po administered for 5 days and measured after 1 day by hematoxylin-eosin staining based microscopic analysis; assay type: organism-based; settings: in vivo, 120 h, time 5 day
[13] = Toxicity in BALB/c mouse assessed as changes in size of hepatocyte nuclei at 20 mg/kg, po administered for 5 days and measured after 1 day by hematoxylin-eosin staining based microscopic analysis; assay type: organism-based; settings: hepatocytes, 120 h, time 5 day
Toxoplasma gondii [14] = assay: Antiparasitic activity against Toxoplasma gondii RH infected in BALB/c mouse assessed as reduction of daughter tachyzoites in blood at 20 mg/kg, po administered every 24 hrs for 5 days starting from 24 hrs post infection by real-time qPCR analysis; assay type: functional, organism-based; settings: time 5.0 day
[15] = Toxicity in BALB/c mouse assessed as increase in creatinine level at 20 mg/kg, po administered for 5 days and measured after 14 days by colorimetric assay; assay type: organism-based; settings: in vivo, 120 h, time 5 day

Compound | Activity [1] | Activity (Toxoplasma gondii [2]) | Activity [3] | Activity [4] | Activity (Toxoplasma gondii [5]) | Activity (Toxoplasma gondii [6]) | Activity [7] | Activity (Toxoplasma gondii [8]) | Activity [9] | Activity (Toxoplasma gondii [10]) | Activity [11] | Activity [12] | Activity [13] | Activity (Toxoplasma gondii [14]) | Activity [15]
COc1cc(Cc2cnc(N)nc2N)cc(OC)c1OC [TRIMETHOPRIM] | Non-Toxic | 36 | Non-Toxic | Non-Toxic | Active | Active | Toxic | Active | Toxic | inactive | Toxic |  |  |  | 
CCc1nc(N)nc(N)c1-c1ccc(Cl)cc1 [PYRIMETHAMINE] | Toxic | 14 | Non-Toxic | Toxic | Active | Active | Toxic | Active | Toxic | Active | Toxic | Toxic | Toxic | Active | Toxic
